Measurements: patent US11142554B2 (MASSACHUSETTS INSTITUTE OF TECHNOLOGY, priority 2015, dated 2021)
Positions of bridges follow the written chain, without caps; N, C: chain ends. Non-standard residues stand in square brackets, D forms with d. Residues, ends and D or L forms follow the SMILES beside them. S5 = C=CCCC[C@](C)(N)C(=O)O; Nle = CCCC[C@H](N)C(=O)O

Tests used:
[1] = Circular dichroism analysis of alpha-helicity; type: physicochemical; details: Tris buffer pH 7.4
Description: FIG. 4|Results of studies assessing the alpha-helicity of various internally cross-linked peptides. Circular dichroism analysis illustrating helicity of stapled peptides 3 (SEQ ID NO:9), 7 (SEQ ID NO:7), and 10 (SEQ ID NO:8) and the non-stapled peptide of the amino acid sequence […] (SEQ ID NO:54), dissolved in Tris buffer pH.7.4.

MEF cells = assay: Lactate dehydrogenase (LDH) release assay, non-specific cell lysis; type: cell-based
Description: FIG. 5|Results of studies assessing non-specific cell-lysis by internally cross-linked peptides. Lactate dehydrogenase release assays (LDH) identified membrane-disruptive peptides 3 (SEQ ID NO:9) and 7 (SEQ ID NO:7); tested in MEF cells. Peptides 7, 10, 3, and 11-20 are SEQ ID NOs: 7, 8, 9, and 10-19 respectively.
Additional studies examined the non-specific cell lysis activity of peptide 3 (SEQ ID NO:9) (M1 SAHBd) and certain sequence variants of peptide 3 (SEQ ID NO:9) (M1 SAHBd).

Mcl-1 = Mcl-1 (Homo sapiens, UniProt Q07820); assay: Receptor binding IC50 of M1 and stapled M1 peptides (Table 2); details: among M1 and its stapled variants
Sequence of Mcl-1 (Q07820 whole entry): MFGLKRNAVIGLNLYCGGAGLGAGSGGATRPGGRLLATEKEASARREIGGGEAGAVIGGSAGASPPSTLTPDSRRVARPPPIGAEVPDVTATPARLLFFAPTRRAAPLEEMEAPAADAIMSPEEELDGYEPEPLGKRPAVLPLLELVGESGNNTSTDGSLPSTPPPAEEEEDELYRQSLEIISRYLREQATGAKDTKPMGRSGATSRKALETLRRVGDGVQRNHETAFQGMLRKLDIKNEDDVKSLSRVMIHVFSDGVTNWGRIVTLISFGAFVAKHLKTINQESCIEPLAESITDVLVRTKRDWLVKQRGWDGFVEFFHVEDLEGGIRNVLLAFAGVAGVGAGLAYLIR
Description: Peptides 1-10 are SEQ ID NOs: 46, 47, 9, 48, 49, 50, 7, 51, 52, and 8 respectively.

[2] = target: T1, interaction between Bak and Mcl-1 (Homo sapiens, UniProt Q07820); assay: Mcl-1 immunoprecipitation and Bak western analysis in OCI-AML3 cell lysate; type: biochemical
T1 construct: endogenous in cells; host or cells: OCI-AML3 cell lysate
T1 sequence (Q07820 whole entry): as above
Description: The same blot was probed with the Bak (˜28 kD) antibody.

CCCC[C@H](NC(=O)[C@H](Cc1c[nH]c2ccccc12)NC(=O)[C@@H](NC(C)=O)[C@@H](C)CC)C(=O)N[C@@]1(C)CCCC=CCCC[C@@](C)(C(=O)N[C@@H](CCCNC(=N)N)C(=O)N[C@@H](CC(C)C)C(=O)NCC(=O)N[C@@H](CC(=O)O)C(=O)N[C@@H](CCC(=O)O)C(=O)N[C@H](C(=O)N[C@@H](CC(N)=O)C(=O)N[C@@H](C)C(=O)N[C@@H](Cc2ccc(O)cc2)C(=O)N[C@@H](Cc2ccc(O)cc2)C(=O)N[C@@H](C)C(=O)N[C@@H](CCCNC(=N)N)C(=O)N[C@@H](CCCNC(=N)N)C(N)=O)[C@@H](C)CC)NC(=O)[C@H](CC(C)C)NC(=O)CNC(=O)[C@H](CCC(N)=O)NC1=O [peptide 3, IWNleXQGLXRLGDEINAYYARR] (Ac-IW[Nle][S5]QGL[S5]RLGDEINAYYARR-NH2; staple 4-8; N-terminus assumed)
alpha-helical content (in words) [1]: highest alpha-helical content
LDH release, membrane disruption (in words) (MEF cells): membrane-disruptive
selectivity for Mcl-1 over Bcl-xL, Bcl-2, Bclw and Bfl 1 (in words) (Mcl-1): greatest selectivity for Mcl-1
disruption of Bak/Mcl-1 interaction (in words) [2]: interaction between Bak and Mcl-1 was disrupted
